From patent US7635572B2, “Methods for conducting assays for enzyme activity on protein microarrays” (Life Technologies Corporation, priority 2004, dated 2009)
Where two headings read alike, the source gives them in different places.

How the values were obtained:
Experiment in all cases: Further analysis of a plurality of inhibitors and a plurality of kinases on microarray (Example IX, Table 5);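 note: inhibition of each kinase by the inhibitors is given as a qualitative level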;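 for Inhibition level, MAP4K3: level 0 none or unclear then 1 little or marginal then 2 substantial inhibition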
Format in all cases: biochemical
[1] = molecular target: plurality of kinases (Table 5) (Homo sapiens, UniProt P06239)
[2] = molecular target: plurality of kinases (Table 5) (Homo sapiens, UniProt P07948)
[3] = molecular target: plurality of kinases (Table 5) (Homo sapiens, UniProt P09769); details: plate B10
[4] = molecular target: plurality of kinases (Table 5) (Homo sapiens, UniProt P11362); details: plate D12; inhibitor 100 uM
[5] = molecular target: T1, plurality of kinases (Table 5) (Homo sapiens, UniProt P54753); details: plate B5
T1 sequence (P54753 34-998): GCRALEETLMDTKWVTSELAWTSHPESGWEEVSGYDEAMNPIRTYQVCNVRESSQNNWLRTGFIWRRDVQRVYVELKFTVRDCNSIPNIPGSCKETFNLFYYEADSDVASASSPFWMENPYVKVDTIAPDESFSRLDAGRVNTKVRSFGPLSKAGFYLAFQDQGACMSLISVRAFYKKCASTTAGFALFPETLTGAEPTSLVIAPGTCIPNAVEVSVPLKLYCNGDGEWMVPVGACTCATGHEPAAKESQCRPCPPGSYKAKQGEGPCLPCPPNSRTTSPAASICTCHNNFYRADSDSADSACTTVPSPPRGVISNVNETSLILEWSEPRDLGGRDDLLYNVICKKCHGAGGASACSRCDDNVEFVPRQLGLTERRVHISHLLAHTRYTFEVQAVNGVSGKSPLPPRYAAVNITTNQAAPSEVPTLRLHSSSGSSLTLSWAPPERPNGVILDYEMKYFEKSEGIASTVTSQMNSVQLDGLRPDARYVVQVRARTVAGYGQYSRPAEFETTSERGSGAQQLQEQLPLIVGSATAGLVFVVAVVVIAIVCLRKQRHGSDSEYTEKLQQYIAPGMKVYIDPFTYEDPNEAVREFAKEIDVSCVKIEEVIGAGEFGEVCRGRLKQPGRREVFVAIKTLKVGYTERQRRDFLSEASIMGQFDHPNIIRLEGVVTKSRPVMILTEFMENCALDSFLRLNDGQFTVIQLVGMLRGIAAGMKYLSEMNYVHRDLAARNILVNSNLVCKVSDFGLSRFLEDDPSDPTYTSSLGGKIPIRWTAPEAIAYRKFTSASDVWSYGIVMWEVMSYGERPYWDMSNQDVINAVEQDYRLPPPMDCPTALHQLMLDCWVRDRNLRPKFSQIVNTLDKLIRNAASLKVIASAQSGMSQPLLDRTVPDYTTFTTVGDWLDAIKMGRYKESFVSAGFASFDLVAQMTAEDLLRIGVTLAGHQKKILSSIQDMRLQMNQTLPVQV

[6] = molecular target: plurality of kinases (Table 5) (Homo sapiens, UniProt Q00536); details: plate A3; inhibitor 100 uM
[7] = molecular target: plurality of kinases (Table 5) (Homo sapiens, UniProt Q05655); details: plate B2
[8] = molecular target: T2, plurality of kinases (Table 5) (Homo sapiens, UniProt Q8IV63); details: plate C12
T2 sequence (Q8IV63 1-474): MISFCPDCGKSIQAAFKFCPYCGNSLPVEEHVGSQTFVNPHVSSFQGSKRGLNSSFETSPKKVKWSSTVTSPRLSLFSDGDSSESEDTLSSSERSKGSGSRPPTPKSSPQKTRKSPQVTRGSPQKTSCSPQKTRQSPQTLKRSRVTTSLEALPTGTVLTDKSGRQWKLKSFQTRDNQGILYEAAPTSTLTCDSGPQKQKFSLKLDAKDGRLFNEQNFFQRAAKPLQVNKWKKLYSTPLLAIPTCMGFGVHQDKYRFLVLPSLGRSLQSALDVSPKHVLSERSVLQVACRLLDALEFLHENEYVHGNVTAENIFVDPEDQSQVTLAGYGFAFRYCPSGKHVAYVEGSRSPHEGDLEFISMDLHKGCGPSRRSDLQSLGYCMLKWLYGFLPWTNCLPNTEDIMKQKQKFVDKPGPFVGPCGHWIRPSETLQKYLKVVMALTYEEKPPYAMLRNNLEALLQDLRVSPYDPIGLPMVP

[9] = molecular target: T3, plurality of kinases (Table 5) (Homo sapiens, UniProt Q8IVH8); details: plate C5; inhibitor 100 uM
T3 sequence (Q8IVH8 1-894): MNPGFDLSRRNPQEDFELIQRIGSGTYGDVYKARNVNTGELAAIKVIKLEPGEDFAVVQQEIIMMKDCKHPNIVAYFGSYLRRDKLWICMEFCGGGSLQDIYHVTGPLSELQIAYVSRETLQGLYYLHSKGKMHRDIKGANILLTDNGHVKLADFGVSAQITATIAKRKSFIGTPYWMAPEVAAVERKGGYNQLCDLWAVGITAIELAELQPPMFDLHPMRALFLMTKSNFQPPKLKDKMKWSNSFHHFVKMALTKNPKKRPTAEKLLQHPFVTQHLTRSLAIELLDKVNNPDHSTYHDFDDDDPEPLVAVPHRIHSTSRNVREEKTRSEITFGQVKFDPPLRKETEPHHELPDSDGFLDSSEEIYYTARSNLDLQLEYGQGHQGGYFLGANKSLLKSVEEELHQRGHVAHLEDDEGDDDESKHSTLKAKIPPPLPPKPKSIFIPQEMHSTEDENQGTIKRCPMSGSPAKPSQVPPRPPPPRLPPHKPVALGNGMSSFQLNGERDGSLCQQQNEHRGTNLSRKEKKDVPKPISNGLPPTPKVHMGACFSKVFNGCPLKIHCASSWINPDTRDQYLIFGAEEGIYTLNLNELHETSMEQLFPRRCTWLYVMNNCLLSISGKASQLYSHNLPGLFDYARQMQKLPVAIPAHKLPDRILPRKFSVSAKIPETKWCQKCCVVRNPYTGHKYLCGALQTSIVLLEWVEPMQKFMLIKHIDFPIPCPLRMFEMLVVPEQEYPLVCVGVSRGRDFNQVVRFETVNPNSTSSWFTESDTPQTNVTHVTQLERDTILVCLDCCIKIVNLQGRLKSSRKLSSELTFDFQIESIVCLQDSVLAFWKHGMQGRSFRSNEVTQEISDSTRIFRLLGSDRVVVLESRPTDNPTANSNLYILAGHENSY

[10] = molecular target: plurality of kinases (Table 5) (Homo sapiens, UniProt Q9Y6E0); details: plate F11; inhibitor 100 uM
[11] = plate A5, Domain 0, inhibitor 100 uM

Sequence of plurality of kinases (Table 5) (Homo sapiens, UniProt Q05655) (Q05655 whole entry): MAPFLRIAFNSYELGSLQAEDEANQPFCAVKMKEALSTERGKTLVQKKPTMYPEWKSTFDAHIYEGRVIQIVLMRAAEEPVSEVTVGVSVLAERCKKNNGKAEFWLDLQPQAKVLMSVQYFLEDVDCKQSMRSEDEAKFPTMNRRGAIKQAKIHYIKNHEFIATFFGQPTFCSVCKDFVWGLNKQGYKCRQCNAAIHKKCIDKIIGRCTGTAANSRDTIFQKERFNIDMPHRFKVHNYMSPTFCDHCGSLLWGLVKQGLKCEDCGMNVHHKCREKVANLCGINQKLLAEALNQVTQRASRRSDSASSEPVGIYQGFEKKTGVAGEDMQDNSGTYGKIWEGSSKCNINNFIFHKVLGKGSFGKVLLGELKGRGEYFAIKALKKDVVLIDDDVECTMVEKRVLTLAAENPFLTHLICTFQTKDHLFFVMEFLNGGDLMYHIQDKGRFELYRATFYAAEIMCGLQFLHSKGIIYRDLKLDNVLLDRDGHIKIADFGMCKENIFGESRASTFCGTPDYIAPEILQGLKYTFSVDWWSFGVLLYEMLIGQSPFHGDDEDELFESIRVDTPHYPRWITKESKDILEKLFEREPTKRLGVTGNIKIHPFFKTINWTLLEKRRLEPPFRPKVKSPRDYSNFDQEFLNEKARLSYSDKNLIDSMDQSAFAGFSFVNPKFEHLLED
Sequence of plurality of kinases (Table 5) (Homo sapiens, UniProt P07948) (P07948 whole entry): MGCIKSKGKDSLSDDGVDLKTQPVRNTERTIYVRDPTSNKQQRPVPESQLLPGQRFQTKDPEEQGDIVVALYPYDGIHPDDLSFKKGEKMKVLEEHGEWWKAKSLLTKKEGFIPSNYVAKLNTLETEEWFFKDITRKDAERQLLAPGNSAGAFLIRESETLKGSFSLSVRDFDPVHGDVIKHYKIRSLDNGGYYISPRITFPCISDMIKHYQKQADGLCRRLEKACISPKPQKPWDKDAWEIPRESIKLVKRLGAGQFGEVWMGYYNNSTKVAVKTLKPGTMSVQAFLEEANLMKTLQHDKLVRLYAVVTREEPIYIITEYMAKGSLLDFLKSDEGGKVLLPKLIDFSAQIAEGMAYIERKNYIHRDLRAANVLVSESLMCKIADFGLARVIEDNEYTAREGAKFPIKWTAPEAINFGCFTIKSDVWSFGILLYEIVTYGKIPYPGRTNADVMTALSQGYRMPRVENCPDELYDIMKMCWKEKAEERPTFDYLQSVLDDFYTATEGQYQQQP
Sequence of plurality of kinases (Table 5) (Homo sapiens, UniProt P11362) (P11362 22-822): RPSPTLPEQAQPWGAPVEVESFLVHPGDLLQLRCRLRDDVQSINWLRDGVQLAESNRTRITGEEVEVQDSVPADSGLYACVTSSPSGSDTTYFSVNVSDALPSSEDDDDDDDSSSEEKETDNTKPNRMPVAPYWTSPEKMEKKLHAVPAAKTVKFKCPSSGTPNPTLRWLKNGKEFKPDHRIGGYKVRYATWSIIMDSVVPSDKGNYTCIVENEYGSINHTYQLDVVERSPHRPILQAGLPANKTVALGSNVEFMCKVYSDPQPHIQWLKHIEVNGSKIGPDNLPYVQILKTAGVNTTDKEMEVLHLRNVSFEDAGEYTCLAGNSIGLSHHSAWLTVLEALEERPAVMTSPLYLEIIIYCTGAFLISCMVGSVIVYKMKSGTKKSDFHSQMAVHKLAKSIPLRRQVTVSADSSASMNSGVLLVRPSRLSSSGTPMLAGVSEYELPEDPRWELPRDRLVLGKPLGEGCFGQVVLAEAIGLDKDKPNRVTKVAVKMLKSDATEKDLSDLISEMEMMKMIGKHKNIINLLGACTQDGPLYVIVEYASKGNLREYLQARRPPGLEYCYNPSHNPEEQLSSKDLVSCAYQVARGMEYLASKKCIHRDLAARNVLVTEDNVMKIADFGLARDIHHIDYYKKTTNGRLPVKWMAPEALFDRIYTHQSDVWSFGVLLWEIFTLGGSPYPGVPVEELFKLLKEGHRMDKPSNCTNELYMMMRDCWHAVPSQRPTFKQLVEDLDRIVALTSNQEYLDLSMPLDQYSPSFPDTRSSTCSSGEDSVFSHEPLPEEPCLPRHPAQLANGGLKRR
Sequence of plurality of kinases (Table 5) (Homo sapiens, UniProt P09769) (P09769 whole entry): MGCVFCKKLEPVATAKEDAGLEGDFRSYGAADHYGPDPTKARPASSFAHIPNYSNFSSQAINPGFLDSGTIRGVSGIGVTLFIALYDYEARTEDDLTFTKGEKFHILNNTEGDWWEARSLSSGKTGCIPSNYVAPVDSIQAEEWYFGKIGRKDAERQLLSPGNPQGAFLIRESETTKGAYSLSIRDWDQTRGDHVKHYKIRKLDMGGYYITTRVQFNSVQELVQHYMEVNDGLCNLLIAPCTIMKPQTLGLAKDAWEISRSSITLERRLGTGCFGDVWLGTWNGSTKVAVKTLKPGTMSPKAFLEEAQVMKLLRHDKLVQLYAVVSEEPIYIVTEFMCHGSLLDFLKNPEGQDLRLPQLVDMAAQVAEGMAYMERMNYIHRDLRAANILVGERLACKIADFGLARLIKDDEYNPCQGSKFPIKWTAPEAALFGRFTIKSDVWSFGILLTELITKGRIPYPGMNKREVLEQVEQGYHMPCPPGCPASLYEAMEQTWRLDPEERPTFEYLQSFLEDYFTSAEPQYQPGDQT
Sequence of plurality of kinases (Table 5) (Homo sapiens, UniProt Q9Y6E0) (Q9Y6E0 whole entry): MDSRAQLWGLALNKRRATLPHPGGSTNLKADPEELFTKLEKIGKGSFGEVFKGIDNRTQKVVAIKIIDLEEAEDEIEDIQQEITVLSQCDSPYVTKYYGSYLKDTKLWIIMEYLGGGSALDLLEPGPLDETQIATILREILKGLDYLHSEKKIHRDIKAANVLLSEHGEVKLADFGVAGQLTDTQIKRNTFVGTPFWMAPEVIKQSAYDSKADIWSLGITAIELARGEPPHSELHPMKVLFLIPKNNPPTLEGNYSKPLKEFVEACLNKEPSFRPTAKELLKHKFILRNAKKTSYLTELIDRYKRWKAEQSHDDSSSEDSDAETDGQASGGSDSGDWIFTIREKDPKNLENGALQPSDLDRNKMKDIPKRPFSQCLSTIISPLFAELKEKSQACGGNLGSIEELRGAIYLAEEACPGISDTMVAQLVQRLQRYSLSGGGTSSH
Sequence of plurality of kinases (Table 5) (Homo sapiens, UniProt P06239) (P06239 whole entry): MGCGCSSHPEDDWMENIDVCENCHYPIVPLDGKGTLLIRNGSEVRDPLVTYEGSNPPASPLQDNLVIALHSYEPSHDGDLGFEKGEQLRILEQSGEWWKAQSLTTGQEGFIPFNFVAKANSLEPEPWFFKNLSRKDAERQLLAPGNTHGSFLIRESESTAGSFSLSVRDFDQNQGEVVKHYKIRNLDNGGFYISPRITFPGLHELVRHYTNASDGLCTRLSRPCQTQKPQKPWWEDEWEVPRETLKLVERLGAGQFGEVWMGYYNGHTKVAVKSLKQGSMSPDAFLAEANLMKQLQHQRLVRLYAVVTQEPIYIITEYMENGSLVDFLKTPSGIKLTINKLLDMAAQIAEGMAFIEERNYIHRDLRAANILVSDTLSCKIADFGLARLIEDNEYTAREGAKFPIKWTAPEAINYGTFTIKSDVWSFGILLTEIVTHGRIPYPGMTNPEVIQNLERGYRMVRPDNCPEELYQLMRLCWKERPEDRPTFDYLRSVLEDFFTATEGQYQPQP
Sequence of plurality of kinases (Table 5) (Homo sapiens, UniProt Q00536) (Q00536 whole entry): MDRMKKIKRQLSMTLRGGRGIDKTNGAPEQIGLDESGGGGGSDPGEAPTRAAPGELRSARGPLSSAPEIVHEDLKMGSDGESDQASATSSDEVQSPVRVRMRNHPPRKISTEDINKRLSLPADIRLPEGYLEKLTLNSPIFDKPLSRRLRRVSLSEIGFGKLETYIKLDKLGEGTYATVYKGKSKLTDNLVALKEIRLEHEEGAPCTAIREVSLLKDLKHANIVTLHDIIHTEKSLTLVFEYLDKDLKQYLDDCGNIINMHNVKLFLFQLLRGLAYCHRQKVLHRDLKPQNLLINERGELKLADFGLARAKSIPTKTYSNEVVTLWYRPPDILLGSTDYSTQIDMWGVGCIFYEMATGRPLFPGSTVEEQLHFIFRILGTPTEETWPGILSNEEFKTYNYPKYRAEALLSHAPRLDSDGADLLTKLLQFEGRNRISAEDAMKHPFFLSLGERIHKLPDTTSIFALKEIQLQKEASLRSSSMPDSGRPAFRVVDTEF

O=S(=O)(NCCNC/C=C/c1ccc(Br)cc1)c1cccc2cnccc12 [H-89]
Inhibition level, LCK ([1]; plate A6, inhibitor 100 uM): 2 | Inhibition level, LYN [2, 11]: 2 | Inhibition level, FGR ([3]; inhibitor 100 uM): 2 | Inhibition level, FGFR1 [4]: 1 | Inhibition level, EPHB3 ([5]; inhibitor 100 uM): 1 | Inhibition level, PCTK1 [6]: 2 | Inhibition level, PRKCD ([7]; inhibitor 100 uM): 1 | Inhibition level, LOC51231 ([8]; inhibitor 100 uM): 2 | Inhibition level, MAP4K3 [9]: 1 | Inhibition level, STK24 [10]: 2

Cn1cc(C2=C(c3cn(CCCSC(=N)N)c4ccccc34)C(=O)NC2=O)c2ccccc21 [Ro-31-8220]
Inhibition level, LCK ([1]; plate A6, Ro-31-8220 90 uM): 0 | Inhibition level, LCK ([1]; plate A6, inhibitor 100 uM): 2 | Inhibition level, LYN ([2]; plate A5, Domain 0, Ro-31-8220 90 uM): 0 | Inhibition level, LYN [2, 11]: 2 | Inhibition level, FGR ([3]; Ro-31-8220, conc. not given): 2 | Inhibition level, FGR ([3]; inhibitor 100 uM): 2 | Inhibition level, FGFR1 [4]: 2 | Inhibition level, EPHB3 ([5]; Ro-31-8220, conc. not given): 0 | Inhibition level, EPHB3 ([5]; inhibitor 100 uM): 2 | Inhibition level, PCTK1 [6]: 0 | Inhibition level, PRKCD ([7]; Ro-31-8220, conc. not given): 2 | Inhibition level, PRKCD ([7]; inhibitor 100 uM): 0 | Inhibition level, LOC51231 ([8]; Ro-31-8220 90 uM): 0 | Inhibition level, LOC51231 ([8]; inhibitor 100 uM): 2 | Inhibition level, MAP4K3 [9]: 2 | Inhibition level, STK24 [10]: 2

CC(=O)c1c(O)c(C)c(O)c(Cc2c(O)c3c(c(C(=O)/C=C/c4ccccc4)c2O)OC(C)(C)C=C3)c1O [Rottlerin (Mallotoxin)]
Inhibition level, LCK ([1]; plate A6, inhibitor 100 uM): 2 | Inhibition level, LYN [2, 11]: 2 | Inhibition level, FGR ([3]; inhibitor 100 uM): 2 | Inhibition level, FGFR1 [4]: 1 | Inhibition level, EPHB3 ([5]; inhibitor 100 uM): 2 | Inhibition level, PCTK1 [6]: 0 | Inhibition level, PRKCD ([7]; inhibitor 100 uM): 0 | Inhibition level, LOC51231 ([8]; inhibitor 100 uM): 0 | Inhibition level, MAP4K3 [9]: 1 | Inhibition level, STK24 [10]: 1

CC(C)(C)n1nc(-c2ccc(Cl)cc2)c2c(N)ncnc21 [PP2]
Inhibition level, LYN [2, 11]: 2 | Inhibition level, FGR ([3]; inhibitor 100 uM): 2 | Inhibition level, FGFR1 [4]: 2 | Inhibition level, EPHB3 ([5]; inhibitor 100 uM): 2 | Inhibition level, PCTK1 [6]: 1 | Inhibition level, PRKCD ([7]; inhibitor 100 uM): 0 | Inhibition level, LOC51231 ([8]; inhibitor 100 uM): 0 | Inhibition level, MAP4K3 [9]: 2 | Inhibition level, STK24 [10]: 2

COc1cc2ncnc(Nc3cccc(Cl)c3)c2cc1OC [AG 1478]
Inhibition level, LCK [1]: 2 | Inhibition level, LYN [2, 11]: 2 | Inhibition level, FGR ([3]; inhibitor 100 uM): 2 | Inhibition level, FGFR1 [4]: 1 | Inhibition level, EPHB3 ([5]; inhibitor 100 uM): 2 | Inhibition level, PCTK1 [6]: 0 | Inhibition level, PRKCD ([7]; inhibitor 100 uM): 0 | Inhibition level, LOC51231 ([8]; inhibitor 100 uM): 0 | Inhibition level, MAP4K3 [9]: 2 | Inhibition level, STK24 [10]: 1

N#C/C(=C/c1ccc(O)c(O)c1)C(=O)NCc1ccccc1 [AG 490]
Inhibition level, LCK ([1]; plate A6, inhibitor 100 uM): 2 | Inhibition level, LYN [2, 11]: 2 | Inhibition level, FGR ([3]; inhibitor 100 uM): 2 | Inhibition level, FGFR1 [4]: 0 | Inhibition level, EPHB3 ([5]; inhibitor 100 uM): 2 | Inhibition level, PCTK1 [6]: 0 | Inhibition level, PRKCD ([7]; inhibitor 100 uM): 0 | Inhibition level, LOC51231 ([8]; inhibitor 100 uM): 0 | Inhibition level, MAP4K3 [9]: 1 | Inhibition level, STK24 [10]: 2

CN[C@@H]1C[C@H]2O[C@@](C)([C@@H]1OC)n1c3ccccc3c3c4c(c5c6ccccc6n2c5c31)C(=O)NC4 [Staurosporine]
Inhibition level, LYN [2]: 0 | Inhibition level, FGR ([3]; Staurosporine, conc. not given): 2 | Inhibition level, EPHB3 ([5]; Staurosporine, conc. not given): 0 | Inhibition level, LOC51231 ([8]; Staurosporine 21.5 uM): 0

O=c1c(O)c(-c2ccc(O)c(O)c2)oc2cc(O)cc(O)c12 [Quercetin]
Inhibition level, LYN [2, 11]: 2 | Inhibition level, FGR ([3]; inhibitor 100 uM): 2 | Inhibition level, EPHB3 ([5]; inhibitor 100 uM): 2 | Inhibition level, PCTK1 [6]: 0 | Inhibition level, PRKCD ([7]; inhibitor 100 uM): 0 | Inhibition level, LOC51231 ([8]; inhibitor 100 uM): 0 | Inhibition level, MAP4K3 [9]: 1

O=c1c(-c2ccc(O)cc2)coc2cc(O)cc(O)c12 [Genistein]
Inhibition level, LCK ([1]; plate A6, Genistein <3.7 mM): 0 | Inhibition level, LCK ([1]; plate A6, inhibitor 100 uM): 2 | Inhibition level, LYN ([2]; plate A5, Domain 0, Genistein <3.7 mM): 2 | Inhibition level, LYN [2, 11]: 2 | Inhibition level, FGR ([3]; Genistein, conc. not given): 2 | Inhibition level, FGR ([3]; inhibitor 100 uM): 2 | Inhibition level, FGFR1 [4]: 0 | Inhibition level, EPHB3 ([5]; Genistein, conc. not given): 0 | Inhibition level, EPHB3 ([5]; inhibitor 100 uM): 2 | Inhibition level, PCTK1 [6]: 1 | Inhibition level, PRKCD ([7]; Genistein, conc. not given): 0 | Inhibition level, PRKCD ([7]; inhibitor 100 uM): 0 | Inhibition level, LOC51231 ([8]; Genistein <3.7 mM): 0 | Inhibition level, LOC51231 ([8]; inhibitor 100 uM): 2 | Inhibition level, MAP4K3 [9]: 2 | Inhibition level, STK24 [10]: 2
